From ChEMBL document CHEMBL1137222, “Architecture of P2Y nucleotide receptors: structural comparison based on sequence analysis, mutagenesis, and homology modeling” (J Med Chem, 2004)

Tests used:
Type in all cases: cell-based
P2Y purinoceptor 1 [1] = molecular target: P2Y purinoceptor 1 (Homo sapiens, UniProt P47900, Y306F); assay: Inhibition concentration required against human Y306F mutant strain P2Y1 receptor expressed in COS-7 cells is determined using [3H]MRS2279 as radioligand
P2Y purinoceptor 1 [2] = molecular target: P2Y purinoceptor 1 (Homo sapiens, UniProt P47900, Y203F); assay: Inhibition concentration required against human Y203F mutant strain P2Y1 receptor expressed in COS-7 cells is determined using [3H]MRS2279 as radioligand
P2Y purinoceptor 1 [3] = molecular target: P2Y purinoceptor 1 (Homo sapiens, UniProt P47900, Y273F); assay: Inhibition concentration required against human Y273F mutant strain P2Y1 receptor expressed in COS-7 cells is determined using [3H]MRS2279 as radioligand
P2Y purinoceptor 1 [4] = molecular target: P2Y purinoceptor 1 (Homo sapiens, UniProt P47900); assay: Inhibition concentration required against wild type strain P2Y1 receptor expressed in COS-7 cells is determined using [3H]-MRS2279 as radioligand
P2Y purinoceptor 1 [5] = molecular target: P2Y purinoceptor 1 (Homo sapiens, UniProt P47900, Y203A); assay: Inhibition concentration required against human Y203A (EL2) mutant strain P2Y1 receptor expressed in COS-7 cells is determined using [3H]MRS2279 as radioligand
P2Y purinoceptor 1 [6] = molecular target: P2Y purinoceptor 1 (Homo sapiens, UniProt P47900, Y273A); assay: Inhibition concentration required against human Y273A mutant strain P2Y1 receptor expressed in COS-7 cells is determined using [3H]-MRS2279 as radioligand
P2Y purinoceptor 1 [7] = molecular target: P2Y purinoceptor 1 (Homo sapiens, UniProt P47900, Y306A); assay: Inhibition concentration required against human Y306A mutant strain P2Y1 receptor expressed in COS-7 cells is determined using [3H]MRS2279 as radioligand
P2Y purinoceptor 1 (Homo sapiens, UniProt P47900, Y306A), sequence (P47900 whole entry Y306A): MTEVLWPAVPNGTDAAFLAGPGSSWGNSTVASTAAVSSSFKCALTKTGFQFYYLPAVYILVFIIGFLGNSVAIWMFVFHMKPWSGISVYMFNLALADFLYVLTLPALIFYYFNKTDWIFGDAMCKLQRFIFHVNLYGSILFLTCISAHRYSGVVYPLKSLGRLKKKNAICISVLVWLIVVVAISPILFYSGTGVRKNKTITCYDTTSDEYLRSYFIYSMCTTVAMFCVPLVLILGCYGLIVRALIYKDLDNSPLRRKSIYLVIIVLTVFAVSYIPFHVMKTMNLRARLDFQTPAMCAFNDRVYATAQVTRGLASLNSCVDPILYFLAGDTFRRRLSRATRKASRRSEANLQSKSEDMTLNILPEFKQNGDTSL

P2Y purinoceptor 1 (Homo sapiens, UniProt P47900, Y273F), sequence (P47900 whole entry Y273F): as the sequence (P47900 whole entry Y306A) above, with Y273F, A306Y counted along it
P2Y purinoceptor 1 (Homo sapiens, UniProt P47900), sequence (P47900 whole entry): as the sequence (P47900 whole entry Y306A) above, with A306Y counted along it
P2Y purinoceptor 1 (Homo sapiens, UniProt P47900, Y203A), sequence (P47900 whole entry Y203A): as the sequence (P47900 whole entry Y306A) above, with Y203A, A306Y counted along it
P2Y purinoceptor 1 (Homo sapiens, UniProt P47900, Y306F), sequence (P47900 whole entry Y306F): as the sequence (P47900 whole entry Y306A) above, with A306F counted along it
P2Y purinoceptor 1 (Homo sapiens, UniProt P47900, Y203F), sequence (P47900 whole entry Y203F): as the sequence (P47900 whole entry Y306A) above, with Y203F, A306Y counted along it
P2Y purinoceptor 1 (Homo sapiens, UniProt P47900, Y273A), sequence (P47900 whole entry Y273A): as the sequence (P47900 whole entry Y306A) above, with Y273A, A306Y counted along it

IC50 (P2Y purinoceptor 1 [1]): 980 nM
IC50 (P2Y purinoceptor 1 [2]): 330 nM
IC50 (P2Y purinoceptor 1 [3]): 660 nM
IC50 (P2Y purinoceptor 1 [4]): 210 nM
IC50 (P2Y purinoceptor 1 [5]): 740 nM
IC50 (P2Y purinoceptor 1 [6]): 480 nM
IC50 (P2Y purinoceptor 1 [7]): 320 nM
Structure (SMILES): CNc1ncnc2c1ncn2[C@H]1CC(OP(=O)(O)O)[C@@H](COP(=O)(O)O)O1 (single isomer, unassigned)
